Three molecules from patent US6048873A, “Tetrahdroquinolin-2-one 6 or 7-yl, tetrahdroquinilin-2-thione 6 or 7-yl pentadienoic acid and related derivatives having retinoid-like biological activity” (Allergan Sales, Inc., priority 1998, dated 2000) can be followed below.

The target in assay [1] is T1, RXRα (Homo sapiens, UniProt P19793).
T1 construct: expressed in transfected cells
T1 sequence (P19793 1-462): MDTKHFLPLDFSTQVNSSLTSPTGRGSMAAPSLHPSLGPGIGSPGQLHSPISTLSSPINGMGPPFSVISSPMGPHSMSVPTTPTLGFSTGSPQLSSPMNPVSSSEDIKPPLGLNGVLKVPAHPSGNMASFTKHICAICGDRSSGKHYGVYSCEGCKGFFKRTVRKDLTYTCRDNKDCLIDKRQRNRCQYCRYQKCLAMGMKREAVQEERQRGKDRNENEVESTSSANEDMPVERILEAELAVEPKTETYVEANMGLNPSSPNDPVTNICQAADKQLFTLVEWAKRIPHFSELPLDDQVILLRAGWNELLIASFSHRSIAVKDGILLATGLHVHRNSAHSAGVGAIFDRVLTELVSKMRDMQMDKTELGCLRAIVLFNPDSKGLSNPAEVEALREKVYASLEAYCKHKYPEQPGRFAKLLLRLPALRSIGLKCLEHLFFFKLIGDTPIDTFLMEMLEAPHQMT
The assay is described as follows: RXRα ligand binding (Table 1). To be noted: RXR α. From the text: (§1) Other assays described below, measure the ability of the compounds of the present invention to bind to, and/or activate various retinoid receptor subtypes. When in these assays a compound binds to a given receptor subtype and activates the transcription of a reporter gene through that subtype, then the compound is considered an agonist of that receptor subtype. […] In the below described assays the ability of the compounds to bind to RARα, RARβ, RARγ, RXRα, RXRβ and RXRγ receptors, and the ability or inability of the compounds to activate transcription of a reporter gene through these receptor subtypes can be tested. […] However, some of the compounds of the invention may behave as retinoid antagonists or partial antagonists and/or as inverse agonists. Because of the complex distribution of the different retinoid receptors in various organs of the mammalian body partial agonists and partial antagonists and compounds which have the characteristics of both may lend themselves to particularly useful therapeutic applications and may avoid serious side effects of conventional retinoid drugs.
(§2) A holoreceptor transactivation assay and a ligand binding assay which measure the antagonist/agonist like activity of the compounds of the invention, or their ability to bind to the several retinoid receptor subtypes, respectively, are described in published PCT Application No. WO WO93/11755 (particularly on pages 30-33 and 37-41) published on Jun. 24, 1993, the specification of which is also incorporated herein by reference. A detailed experimental procedure for holoreceptor transactivations has been described by Heyman et al. Cell 68, 397-406, (1992); Allegretto et al. J. Biol. Chem. 268, 26625-26633, and Mangelsdorf et al. The Retinoids: Biology, Chemistry and Medicine, pp 319-349, Raven Press Ltd., New York, which are expressly incorporated herein by reference. The results obtained in this assay are expressed in EC50 numbers, as they are also in the chimeric receptor transactivation assay. The results of ligand binding assay are expressed in Kd numbers. […]

For assay [2], the target named is T2, RXRγ (Mus musculus, UniProt P28705).
T2 construct: expressed in transfected cells
T2 sequence (P28705 1-463): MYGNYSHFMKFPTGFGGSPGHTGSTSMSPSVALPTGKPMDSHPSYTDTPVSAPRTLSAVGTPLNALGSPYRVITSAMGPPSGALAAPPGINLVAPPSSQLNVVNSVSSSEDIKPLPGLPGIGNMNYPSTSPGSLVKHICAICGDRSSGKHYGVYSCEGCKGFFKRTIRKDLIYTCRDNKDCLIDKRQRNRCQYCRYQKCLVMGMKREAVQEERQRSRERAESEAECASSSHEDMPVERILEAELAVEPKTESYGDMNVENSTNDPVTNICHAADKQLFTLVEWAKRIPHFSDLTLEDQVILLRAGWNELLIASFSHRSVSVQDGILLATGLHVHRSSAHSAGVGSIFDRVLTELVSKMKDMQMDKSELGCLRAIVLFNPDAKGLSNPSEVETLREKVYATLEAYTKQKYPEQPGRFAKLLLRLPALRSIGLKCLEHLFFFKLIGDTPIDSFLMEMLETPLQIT
The assay is described as follows: RXRγ receptor transactivation (Table 1). The assay is classed as cell-based. To be noted: RXR γ; for Emax: read-out: % Eff.
Description: as §1
(§3) A holoreceptor transactivation assay and a ligand binding assay which measure the antagonist/agonist like activity of the compounds of the invention, or their ability to bind to the several retinoid receptor subtypes, respectively, are described in published PCT Application No. WO WO93/11755 (particularly on pages 30-33 and 37-41) published on Jun. 24, 1993, the specification of which is also incorporated herein by reference. A detailed experimental procedure for holoreceptor transactivations has been described by Heyman et al. Cell 68, 397-406, (1992); Allegretto et al. J. Biol. Chem. 268, 26625-26633, and Mangelsdorf et al. The Retinoids: Biology, Chemistry and Medicine, pp 319-349, Raven Press Ltd., New York, which are expressly incorporated herein by reference. The results obtained in this assay are expressed in EC50 numbers, as they are also in the chimeric receptor transactivation assay. The results of ligand binding assay are expressed in Kd numbers. (See Cheng et al. Biochemical Pharmacology Vol. 22 pp 3099-3108, expressly incorporated herein by reference.)

In another assay the target is T3, RARβ (Homo sapiens, UniProt P10826).
T3 sequence (P10826 1-448 isoform P10826-2): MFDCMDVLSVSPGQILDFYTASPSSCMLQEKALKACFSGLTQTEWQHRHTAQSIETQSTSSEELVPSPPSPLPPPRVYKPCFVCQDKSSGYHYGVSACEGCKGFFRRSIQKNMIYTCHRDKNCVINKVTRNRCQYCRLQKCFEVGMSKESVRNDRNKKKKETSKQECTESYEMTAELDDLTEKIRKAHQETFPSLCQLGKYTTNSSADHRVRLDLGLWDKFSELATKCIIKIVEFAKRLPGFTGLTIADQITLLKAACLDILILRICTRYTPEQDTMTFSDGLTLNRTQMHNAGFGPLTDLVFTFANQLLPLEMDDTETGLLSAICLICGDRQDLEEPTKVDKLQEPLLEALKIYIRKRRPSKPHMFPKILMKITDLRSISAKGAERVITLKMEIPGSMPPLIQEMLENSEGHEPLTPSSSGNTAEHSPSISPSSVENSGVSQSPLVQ
The assay is described as follows: RARβ ligand binding (Table 2). To be noted: RAR β.
Description: as §1, §2

The next assay has as its target T4, RXRβ (Mus musculus, UniProt P28704).
T4 construct: expressed in transfected cells
T4 sequence (P28704 1-520): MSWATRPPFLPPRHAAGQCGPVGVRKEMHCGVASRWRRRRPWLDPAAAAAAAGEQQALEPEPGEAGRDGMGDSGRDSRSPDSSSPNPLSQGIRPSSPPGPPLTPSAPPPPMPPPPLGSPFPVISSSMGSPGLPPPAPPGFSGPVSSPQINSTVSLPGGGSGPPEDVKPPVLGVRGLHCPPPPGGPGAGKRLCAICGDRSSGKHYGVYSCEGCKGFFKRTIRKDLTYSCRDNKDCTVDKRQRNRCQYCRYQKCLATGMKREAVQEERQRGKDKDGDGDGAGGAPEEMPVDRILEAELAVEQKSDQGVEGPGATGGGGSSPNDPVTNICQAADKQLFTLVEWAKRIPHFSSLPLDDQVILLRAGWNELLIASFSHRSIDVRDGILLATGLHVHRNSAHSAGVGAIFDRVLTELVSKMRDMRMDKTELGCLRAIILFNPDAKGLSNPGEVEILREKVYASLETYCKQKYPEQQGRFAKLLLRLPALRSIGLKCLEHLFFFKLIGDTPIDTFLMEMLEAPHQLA
The assay is described as follows: RXRβ receptor transactivation (Table 1). It counts as cell-based. To be noted: RXR β; for Emax: read-out: % Eff.
Description: as §1, §3

Assay [3] has as its target T1, RXRα. The assay is described as follows: RXRα receptor transactivation (Table 1). To be noted: RXR α; for Emax: read-out: % Eff. The assay is classed as cell-based.
Description: as §1
The specification of U.S. Pat. No. 5,455,265 is hereby expressly incorporated by reference.
as §3

Another assay deals with T5, RARγ (Homo sapiens, UniProt P13631).
T5 sequence (P13631 1-454): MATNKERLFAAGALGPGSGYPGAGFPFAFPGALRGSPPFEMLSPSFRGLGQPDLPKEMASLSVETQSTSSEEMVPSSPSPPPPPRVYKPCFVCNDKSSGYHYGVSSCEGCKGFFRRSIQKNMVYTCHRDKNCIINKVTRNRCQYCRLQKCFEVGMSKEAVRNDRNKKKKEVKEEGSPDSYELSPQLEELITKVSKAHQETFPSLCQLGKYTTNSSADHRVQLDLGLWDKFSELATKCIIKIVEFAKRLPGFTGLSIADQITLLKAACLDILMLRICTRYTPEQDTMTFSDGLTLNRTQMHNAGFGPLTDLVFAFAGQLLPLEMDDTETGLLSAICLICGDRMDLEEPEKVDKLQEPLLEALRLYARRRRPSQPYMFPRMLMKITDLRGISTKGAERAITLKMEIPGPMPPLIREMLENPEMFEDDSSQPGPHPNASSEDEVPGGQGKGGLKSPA
The assay is described as follows: RARγ ligand binding (Table 2). To be noted: RAR γ.
Description: as §1, §2

The target of assay [4] is T2, RXRγ. The assay is described as follows: RXRγ ligand binding (Table 1). To be noted: RXR γ.
Description: as §1, §2

Another assay addresses T6, RARα (Homo sapiens, UniProt P10276).
T6 sequence (P10276 1-462): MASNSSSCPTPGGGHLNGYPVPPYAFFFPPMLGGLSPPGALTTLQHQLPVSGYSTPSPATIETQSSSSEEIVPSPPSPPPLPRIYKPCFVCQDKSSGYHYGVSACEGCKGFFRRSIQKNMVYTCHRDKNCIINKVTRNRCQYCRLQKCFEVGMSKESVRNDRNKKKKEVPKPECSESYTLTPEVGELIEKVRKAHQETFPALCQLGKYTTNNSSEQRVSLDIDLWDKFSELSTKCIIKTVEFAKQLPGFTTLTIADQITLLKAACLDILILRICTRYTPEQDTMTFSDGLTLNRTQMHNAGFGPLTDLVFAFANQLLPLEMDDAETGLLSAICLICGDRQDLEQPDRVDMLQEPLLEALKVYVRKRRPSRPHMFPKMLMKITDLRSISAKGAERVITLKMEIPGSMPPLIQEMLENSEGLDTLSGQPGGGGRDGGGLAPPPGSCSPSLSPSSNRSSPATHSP
The assay is described as follows: RARα ligand binding (Table 2). To be noted: RAR α.
Description: as §1, §2

In general, Kd refers to the constant that tells how readily two partners part at equilibrium. A lower Kd goes with higher affinity. For orientation: EC50 means the concentration that produces a half-maximal response. A higher EC50 goes with a less potent agent. Turning to `CC(/C=C/[C@@H]1C[C@]1(C)c1ccc2c(c1)C(C)(C)CC(=O)N2C(C)C)=C\C(=O)O` [Compound 1, (6S,7S)-7-(4,4-Dimethyl-2-oxo-1-(2-propyl)-1,2,3,4-tetrahydroquinolin-6-yl)-6,7-methano-3-methyl-octa-2E,4E-dienoic acid], the Kd was 1.4 nM on RXRα [1]; greater than 10 µM at RARβ; greater than 10 µM at RARγ; 3.1 nM at RXRγ [4]; greater than 10 µM on RARα. Further, the EC50 was determined as 0.085 nM at RXRγ [2], 0.627 nM at RXRβ and 0.077 nM on RXRα [3]. For the same molecule, the Emax turned out to be 115% at RXRγ [2], 109% on RXRβ and 107% at RXRα [3].
Consider `CC(/C=C/[C@@H]1C[C@]1(C)c1ccc2c(c1)C(C)(C)CC(=S)N2C(C)C)=C\C(=O)O` [Compound 2, (6S,7S)-7-(4,4-Dimethyl-1-(2-propyl)-2-thioxo-1,2,3,4-tetrahydroquinolin-6-yl)-6,7-methano-3-methyl-octa-2E,4E-dienoic acid], for which the Kd at RXRα [1] worked out at 0.97 nM; at RARβ it was 31 µM; at RARγ it was 25 µM; at RXRγ [4], 10.5 nM; on RARα, 27 µM. The concentration for a half-maximal effect (EC50) stood at 0.059 nM at RXRγ [2], 0.376 nM on RXRβ and 0.064 nM at RXRα [3]. Besides, the figures for the Emax on RXRγ [2], at RXRβ and at RXRα [3] were 137%, 144% and 160%, respectively.
`CC(/C=C/[C@@H]1C[C@]1(C)c1ccc2c(c1)C(C)(C)CCN2C(=O)OC(C)(C)C)=C\C(=O)O` [Compound 17]: the Kd on RXRα [1] was 0.35 nM; at RARβ, 10 µM; on RARγ, 12 µM; at RXRγ [4] it was 4.1 nM; at RARα, greater than 30 µM. In addition, the EC50 at RXRγ [2] is 0.31 nM; on RXRβ, 0.42 nM; at RXRα [3], 0.15 nM. Also, the Emax at RXRγ [2] stood at 101%; on RXRβ it was 115%; at RXRα [3], 110%.
